Read-outs that look alike come from different tables or passages of the source. Marks after values point to notes of the source that are not given here. No end group written: not given here.
Tests used:
ST = type: in vivo, chickens; conditions: for Reduction of percent of birds positive for ST in the liver: 50 mg/kg twice daily
Description: Efficacy of peptides in chickens: To assess the efficacy of peptides against ST in chickens, one-day-old specific pathogen free (SPF) layer chickens from a Salmonella free flock at The Ohio State University were obtained and provided with feed and water ad libitum. Chickens (n=10/group) were treated with P1, P2, or P4 at 50 mg/kg body weight twice-daily doses. Peptides were dissolved in water to reach final concentration of 50 mg/kg and orally administered from day 1 to day 7. Early intestinal colonization is important for poultry health and thus is why peptide treatment was begun at day 1. Birds were challenged with 10^4 CFU of nalidixic acid resistant ST on day 3. At day 10 [7 days post infection (dpi)] chickens were euthanized, and the cecum, liver, and spleen were collected to determine the peptide's ability to reduce ST infection. The cecum was suspended in PBS, homogenized, ten-fold serially diluted, and plated on XLT4 agar plates supplemented with 50 μg/ml nalidixic acid and incubated for 24 h at 37° C. The liver and spleen were individually suspended in PBS and the undiluted homogenized suspension was plated directly and incubated for 24 h at 37° C. One milliliter of the undiluted homogenized liver and spleen was enriched in 9 ml of tetrathionate broth (TTB) for 24 h at 37° C. After incubation they were plated as described above to enumerate ST in each tissue. The body weights of chickens were measured on the day of necropsy (day 10). An untreated positive control group (PC: infected but untreated) and a negative control group (NC: non infected and non-treated) were included in the study. A Mann-Whitney test was used to determine statistical significance (P<0.05) of treatment on ST load in cecum and on body weight.

APEC O78 = type: cell-based, E. coli
Description: Anti-APEC activity determination: The anti-APEC activity of peptides was determined in LB broth following CLSI guidelines. Briefly, overnight grown APEC O78 was adjusted to 5×10^5 CFU/mL concentration in fresh LB media. One-hundred microliters of APEC suspension was aliquoted into the wells of the 96-well plate. Peptides were added to the wells at 6 mM and 12 mM concentrations and incubated at 37° C. in TECAN Sunrise™ absorbance microplate reader with kinetic absorbance measurement set at every 30 mins for 12 h. Sterile media and DMSO (solvent) were used as controls. The growth inhibitory activity of the peptides against APEC was calculated using the formula: (OD600 DMSO treated well−OD600 peptide treated well)/OD600 DMSO treated well×100%.
The minimum inhibitory concentration (MIC) was determined for selected peptides (P1, P2, P3, and P4) using similar assay as above. Peptides were added to the wells of the 96-well plate at 6 mM, 9 mM, 12 mM, 15 mM, and 18 mM concentrations. The peptide concentration at which there is no visible APEC growth (no OD increase) was determined as MIC. Two independent experiments were conducted.
Arginine and lysine substituted peptide analogues: The non-essential amino acid residues identified in each peptide were substituted with arginine/lysine to test whether these substitutions enhance the anti-APEC activity of peptides. The MICs of arginine and lysine substituted peptide analogues ([…] (SEQ ID NO:37), […] (SEQ ID NO:38), […] (SEQ ID NO:39), KDENK (SEQ ID NO:41), PDEKK (SEQ ID NO:42), KDEKK (SEQ ID NO:43), KHTAPK (SEQ ID NO:45), VKTAPK (SEQ ID NO:46), VHTKPK (SEQ ID NO:47), and KKTKPK (SEQ ID NO:48)) were determined as above and compared with original peptides.

cecal microbiota = assay: Cecal microbiome analysis (peptides, ST infected); type: in vivo, chickens; conditions: for Relative Abundance (%) Acinetobacter / Relative Abundance (%) Blautia / Relative Abundance (%) Caproiciproducens / Relative Abundance (%) Enterobacteriaceae (unidentified) / Relative Abundance (%) Epulopiscium / Relative Abundance (%) Lachnospiraceae (unidentified) / Relative Abundance (%) Lachnospiraceae NK4A136 group / Relative Abundance (%) Lactobacillus / Relative Abundance (%) Sellimonas / Relative Abundance (%) [Clostridium] innocuum group / Relative Abundance (%) [Eubacterium] coprostanoligenes group / Relative abundance (%) Anaerotruncus / Relative abundance (%) Clostridium sensu stricto 1 / Relative abundance (%) Enterococcus / Relative abundance (%) Erysipelatoclostridium / Relative abundance (%) Escherichia-Shigella / Relative abundance (%) Flavonifractor / Relative abundance (%) Lachnospiraceae (uncultured) / Relative abundance (%) Oscillibacter / Relative abundance (%) Pediococcus / Relative abundance (%) Ruminiclostridium 5 / Relative abundance (%) Ruminiclostridium 9 / Relative abundance (%) Ruminococcus torques group: genus
Description: Cecal microbiome analysis: To evaluate the role P1, P2, and P4 (50 mg/kg) treatment on the cecal microbiome of chickens, 16S rRNA based metagenomic study was conducted as previously described. DNA was extracted from approximately 0.2 g of cecal content using PureLink™ Microbiome DNA Purification Kit (Thermofisher Scientific). After which, RNA was removed with the treatment of RNase A (2 μL of 100 mg/mL solution per sample: Qiagen). NanoDrop 2000c Spectrophotometer (ThermoFisher Scientific) was used to check the quality and measure the quantity of the DNA. The extracted DNA was used in 16S rRNA V4-V5 sequencing done at MCIC (mcic.osu.edu/genomics/illumina-sequencing). Amplicon libraries were prepared using IFU KAPA HiFi HotStart ReadyMixPCR Kit (Roche). PCR products were cleaned using Agencourt AMPure XP beads (BECKMAN COULTER Life Sciences). Nextera XT DNA Library Preparation Kit (Illumina) was used to generate Illumina library and sequencing done with Illumina MiSeq platform generating paired end 300-bp reads. QIIME 2 (Quantitative Insights Into Microbial Ecology) bioinformatics platform (qiime2.org/) was used to conduct metagenomic analysis. Quality control of the raw reads was performed using FastQC 0.11.8 (Babraham Bioinformatics). Trimmomatic-0.33 was used to trim the adaptor and other Illumina-specific sequences (www.usadellab.org/cms/?page=trimmomatic). After which trimmed sequences (fastq.gz) were then imported into QIIME 2 as a manifest file format (PairedEndManifestPhred33V2). DADA2 was then used for the feature table construction and additional filtering of sequences. Taxonomic analysis was performed using Naive Bayes classifiers trained on the Silva 132 99% OTUs (silva-132-99-nb-classifier.qza) database. Phylogenetic diversity was analyzed using align-to-tree-mafft-fasttree pipeline. Additionally, Shannon's diversity index (alpha diversity) and Bray-Curtis distance (beta diversity) were analyzed using core-metrics-phylogenetic pipeline (docs.qiime2.org/2019.7/tutorials/moving-pictures/). Alpha and beta diversity statistical significance were analyzed using Kruskal-Wallis and PERMANOVA tests (P<0.05), respectively. The statistical difference (P<0.05) in the taxonomic composition between the groups was determined using Mann Whitney Test.

multiple APEC serotypes = type: cell-based, E. coli
Description: Anti-APEC spectrum determination: Peptides (P1, P2, and P3) were tested against multiple APEC serotypes/strains to determine their spectrum of activity. Peptides were added at their MICs and the growth inhibitory activity of the peptides was determined as described above.

Substance	Reduction of percent of birds positive for ST in the liver (ST)	MIC50 (APEC O78)	Relative Abundance (%) Acinetobacter (cecal microbiota)	Relative Abundance (%) Blautia (cecal microbiota)	Relative Abundance (%) Caproiciproducens (cecal microbiota)	Relative Abundance (%) Enterobacteriaceae (unidentified) (cecal microbiota)	Relative Abundance (%) Epulopiscium (cecal microbiota)	Relative Abundance (%) Lachnospiraceae (unidentified) (cecal microbiota)	Relative Abundance (%) Lachnospiraceae NK4A136 group (cecal microbiota)	Relative Abundance (%) Lactobacillus (cecal microbiota)	Relative Abundance (%) Sellimonas (cecal microbiota)	Relative Abundance (%) [Clostridium] innocuum group (cecal microbiota)	Relative Abundance (%) [Eubacterium] coprostanoligenes group (cecal microbiota)	Relative abundance (%) Anaerotruncus (cecal microbiota)	Relative abundance (%) Clostridium sensu stricto 1 (cecal microbiota)	Relative abundance (%) Enterococcus (cecal microbiota)	Relative abundance (%) Erysipelatoclostridium (cecal microbiota)	Relative abundance (%) Escherichia-Shigella (cecal microbiota)	Relative abundance (%) Flavonifractor (cecal microbiota)	Relative abundance (%) Lachnospiraceae (uncultured) (cecal microbiota)	other results
MLNERVK [Peptide P4, MLNERVK]	30%	20.0 mM	0.00%	1.60%	0.00%	4.54%	0.00%	44.19%	0.53%	7.01%	0.57%	0.00%	0.00%	0.48%	0.00%	0.00%	3.51%	3.16† %	1.20%	*11.71%	MIC (APEC O78): > 18 mM; Relative abundance of Lachnospiraceae (cecal microbiota; family, negative control 53%): 78%; Relative abundance (%) Oscillibacter (cecal microbiota): 1.35%; Relative abundance (%) Pediococcus (cecal microbiota): 0.75%; Relative abundance (%) Ruminiclostridium 5 (cecal microbiota): 0.00%; Relative abundance (%) Ruminiclostridium 9 (cecal microbiota): 0.13† %; Relative abundance (%) Ruminococcus torques group (cecal microbiota): 19.27%
PDENK [Peptide P2, PDENK]	30%	9.5 mM	0.00%	0.00%	0.63%	6.22%	0.17%	37.10%	0.00%	5.57%	1.76%	0.00%	0.00%	0.00%	0.00%	0.00%	5.56%	13.25%	2.33%	4.21%	Reduction of ST colonization in the cecum (ST; 50 mg/kg twice daily 7 days, day 10 (7 dpi)): 1.8 logs; MIC (APEC O78; 100% APEC growth inhibition): 12 mM; Growth inhibition against APEC serotypes (multiple APEC serotypes): 95.0-100%; Relative abundance (%) Oscillibacter (cecal microbiota): 0.00%; Relative abundance (%) Pediococcus (cecal microbiota): 0.00%; Relative abundance (%) Ruminiclostridium 5 (cecal microbiota): 0.00%; Relative abundance (%) Ruminiclostridium 9 (cecal microbiota): 0.00† %; Relative abundance (%) Ruminococcus torques group (cecal microbiota): 23.19%

— patent US20240181000A1, “LGG-DERIVED PEPTIDES AND METHODS OF USE THEREOF” (Ohio State Innovation Foundation, priority 2021, published 2024)
